# Experimental data as given in ChEMBL document CHEMBL1201862, “PubChem BioAssay data set” (2004).
#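 A five-concentration, 48-hour dose response in 96-well plates underlies each endpoint, interpolated linearly between surrounding concentrations. At the GI50, growth is halved.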 Active and inactive are the calls of the source. Cut-off read from the data, not from the text of the source: active = GI50 up to about 1.1 µM and inactive = higher.
# Columns and labels:
# Assay in all cases: growth of human tumour cells (NCI), 48 h
# NCI-H460 = test system: NCI-H460
# OVCAR-4 = test system: OVCAR-4
# NCI-H23 = test system: NCI-H23
# KM12 = test system: KM12
# 786-0 = test system: 786-0
# A549 = test system: A549
# SK-OV-3 = test system: SK-OV-3
# UO-31 = test system: UO-31
# HL-60 = test system: HL-60
# CCRF-CEM = test system: CCRF-CEM
# HT-29 = test system: HT-29
# LOX IMVI = test system: LOX IMVI
# SNB-19 = test system: SNB-19
# MOLT-4 = test system: MOLT-4
# Malme-3M = test system: Malme-3M
# TK-10 = test system: TK-10
# OVCAR-3 = test system: OVCAR-3
# HCC 2998 = test system: HCC 2998
# RXF 393 = test system: RXF 393
SMILES,GI50 (NCI-H460),GI50 (OVCAR-4),GI50 (NCI-H23),GI50 (KM12),GI50 (786-0),GI50 (A549),GI50 (SK-OV-3),GI50 (UO-31),GI50 (HL-60),GI50 (CCRF-CEM),GI50 (HT-29),GI50 (LOX IMVI),GI50 (SNB-19),GI50 (MOLT-4),GI50 (Malme-3M),GI50 (TK-10),GI50 (OVCAR-3),GI50 (HCC 2998),GI50 (RXF 393)
CCOC(=O)C(C(=O)Cc1ccccc1)c1ccccc1 (stereo not drawn),> 100 µM (inactive),> 100 µM (inactive),> 100 µM (inactive),> 100 µM (inactive),> 100 µM (inactive),> 100 µM (inactive),> 100 µM (inactive),> 100 µM (inactive),> 100 µM (inactive),> 100 µM (inactive),> 100 µM (inactive),> 100 µM (inactive),> 100 µM (inactive),87.9 µM (inactive),> 100 µM (inactive),> 100 µM (inactive),> 100 µM (inactive),–,–
Cc1occ2c1C(=O)CC1C2[C@@H](O)CC2C(C)(C)CCC[C@]12C (stereo partly drawn),–,98.9 µM (inactive),> 100 µM (inactive),–,> 100 µM (inactive),> 100 µM (inactive),> 100 µM (inactive),> 100 µM (inactive),44.7 µM (inactive),42.7 µM (inactive),> 100 µM (inactive),–,> 100 µM (inactive),40 µM (inactive),> 100 µM (inactive),–,–,> 100 µM (inactive),> 100 µM (inactive)
C=CCNC(=S)N1CC(C)C(=O)Nc2ccccc21 (stereo not drawn),> 100 µM (inactive),> 100 µM (inactive),> 100 µM (inactive),> 100 µM (inactive),> 100 µM (inactive),> 100 µM (inactive),–,> 100 µM (inactive),> 100 µM (inactive),> 100 µM (inactive),> 100 µM (inactive),> 100 µM (inactive),> 100 µM (inactive),> 100 µM (inactive),> 100 µM (inactive),> 100 µM (inactive),> 100 µM (inactive),–,> 100 µM (inactive)
CC1(C)C2CCC3(C2)CS(=O)(=O)N2OC231 (stereo not drawn),19.5 µM (inactive),–,16.6 µM (inactive),19.6 µM (inactive),16.9 µM (inactive),> 100 µM (inactive),49.7 µM (inactive),16.1 µM (inactive),15.4 µM (inactive),24.5 µM (inactive),15.2 µM (inactive),16.3 µM (inactive),34.4 µM (inactive),–,15.5 µM (inactive),18 µM (inactive),19.1 µM (inactive),38.1 µM (inactive),–
CN(C)c1n/c(=N/c2ccc3ccccc3c2)ss1,5.75 µM (inactive),17.5 µM (inactive),–,15.6 µM (inactive),37.6 µM (inactive),12.2 µM (inactive),77.1 µM (inactive),23.4 µM (inactive),16.1 µM (inactive),7.05 µM (inactive),–,–,32 µM (inactive),4.45 µM (inactive),24.4 µM (inactive),14.1 µM (inactive),12.2 µM (inactive),33.7 µM (inactive),41.9 µM (inactive)
COC(=O)C(Cc1ccccc1)NC(=O)Cn1ccnc1[N+](=O)[O-] (stereo not drawn),> 100 µM (inactive),> 100 µM (inactive),> 100 µM (inactive),> 100 µM (inactive),> 100 µM (inactive),> 100 µM (inactive),> 100 µM (inactive),> 100 µM (inactive),> 100 µM (inactive),> 100 µM (inactive),> 100 µM (inactive),> 100 µM (inactive),> 100 µM (inactive),> 100 µM (inactive),31.7 µM (inactive),> 100 µM (inactive),> 10 µM (inactive),–,> 100 µM (inactive)
CCNC(=O)O/N=C1\CCC2[C@@H]3CC=C4C[C@@H](OC5CCCCO5)CC[C@]4(C)C3CC[C@]12C (stereo partly drawn),1.93 µM (inactive),1.47 µM (inactive),2.72 µM (inactive),3.94 µM (inactive),2.31 µM (inactive),2.74 µM (inactive),5.31 µM (inactive),1.44 µM (inactive),–,–,3.16 µM (inactive),1.58 µM (inactive),0.723 µM (active),1.61 µM (inactive),1.02 µM (active),2 µM (inactive),2.59 µM (inactive),2.89 µM (inactive),2.2 µM (inactive)
COc1ccc(C(c2ccccc2C(=O)O)c2ccc(OC)c3ccccc23)c2ccccc12,–,10.7 µM (inactive),> 10 µM (inactive),8.15 µM (inactive),15.8 µM (inactive),7.48 µM (inactive),23.6 µM (inactive),4.9 µM (inactive),7.33 µM (inactive),8.79 µM (inactive),11.9 µM (inactive),18 µM (inactive),11.2 µM (inactive),5.62 µM (inactive),13.3 µM (inactive),19.9 µM (inactive),13.5 µM (inactive),6.49 µM (inactive),–
COCCCNC(=O)CC(=O)NCCCOC,> 100 µM (inactive),> 100 µM (inactive),> 100 µM (inactive),> 100 µM (inactive),> 100 µM (inactive),> 100 µM (inactive),–,> 100 µM (inactive),> 100 µM (inactive),> 100 µM (inactive),> 100 µM (inactive),–,> 100 µM (inactive),> 100 µM (inactive),> 100 µM (inactive),> 100 µM (inactive),> 100 µM (inactive),> 100 µM (inactive),> 100 µM (inactive)
CNC(=O)C1(C#N)C(c2ccccc2)C(C#N)(C(=O)NC)C1c1ccccc1 (stereo not drawn),> 100 µM (inactive),> 100 µM (inactive),> 100 µM (inactive),> 100 µM (inactive),> 100 µM (inactive),> 100 µM (inactive),> 100 µM (inactive),> 100 µM (inactive),–,> 100 µM (inactive),> 100 µM (inactive),> 100 µM (inactive),27.4 µM (inactive),> 100 µM (inactive),–,> 100 µM (inactive),> 100 µM (inactive),> 100 µM (inactive),–
Cc1c(-c2ccccc2)c(=O)oc2ccc(Cl)cc12,70.5 µM (inactive),53.3 µM (inactive),57.8 µM (inactive),> 100 µM (inactive),36.5 µM (inactive),> 100 µM (inactive),34.4 µM (inactive),> 100 µM (inactive),> 100 µM (inactive),> 100 µM (inactive),> 100 µM (inactive),> 100 µM (inactive),63 µM (inactive),> 100 µM (inactive),99.3 µM (inactive),33.3 µM (inactive),> 100 µM (inactive),> 100 µM (inactive),–
CCCCCC[C@@H]1CCC2C(CO)[C@@H](O)CC[C@@H]2C1 (stereo partly drawn),15.5 µM (inactive),16.3 µM (inactive),16 µM (inactive),18.7 µM (inactive),19.3 µM (inactive),17.4 µM (inactive),–,20.7 µM (inactive),–,23.6 µM (inactive),18.2 µM (inactive),19.3 µM (inactive),18.1 µM (inactive),18.2 µM (inactive),18.8 µM (inactive),–,15.8 µM (inactive),22 µM (inactive),–
